Experimental data as given in the supplement of paper PMC4862054.

The compounds below were run on CAL-85-1 (assay: normalised viability (% of control), CellTiter-Blue; higher = more viable cells (100 = DMSO, 0 = benzethonium chloride kill control)). Details: incubation time: 72 h.
Method: (§1)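 DSRT, CellTiter-Blue viability, 72 h incubation. Signal is normalised to DMSO and benzethonium chloride controls. Value is the normalised response at dose 1.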
Compound `N#Cc1ccc(COC[C@H]2O[C@@H](n3c(NCc4ccc(Cl)c(Cl)c4)nc4c(N)ncnc43)[C@H](O)[C@@H]2O)cc1` (1 nM) has a normalised viability of 98.4%. Compound `COc1cc(OC2CCN(C)CC2)ccc1Nc1ncc2c(n1)n(C1CCCC1)c(=O)n2C` [AZ 3146] (1 nM) has a normalised viability of 114%. Work on `CN(C)c1nc(N(C)C)nc(N(C)C)n1` [Altretamine] (1 nM) yielded a normalised viability of 94.8%. Work on `Nc1cc(C(F)(F)F)c(-c2cc(N3CCOCC3)nc(N3CCOCC3)n2)cn1` [BKM-120] (1 nM) yielded a normalised viability of 89.5%. Compound `O=C(/C=C/c1cccc(S(=O)(=O)Nc2ccccc2)c1)NO` [Belinostat] (1 nM) has a normalised viability of 92.5%. `O=P1(N(CCCl)CCCl)NCCCO1` (stereo unspecified) [Cyclophosphamide] (4 nM) was tested, and the normalised viability was 88.2%. `S=P(N1CC1)(N1CC1)N1CC1` [Thio-TEPA] (10 nM) was tested, and the normalised viability was 92.8%.

What follows are compounds tested on MDA-MB-453 in the same assay as above. Details: incubation time: 72 h.
Method: as §1
`N#Cc1ccc(COC[C@H]2O[C@@H](n3c(NCc4ccc(Cl)c(Cl)c4)nc4c(N)ncnc43)[C@H](O)[C@@H]2O)cc1` (1 nM) was tested, and the normalised viability was 110%. With `COc1cc(OC2CCN(C)CC2)ccc1Nc1ncc2c(n1)n(C1CCCC1)c(=O)n2C` [AZ 3146] (1 nM) the normalised viability was 94.3%. `CN(C)c1nc(N(C)C)nc(N(C)C)n1` [Altretamine] (1 nM) was tested, and the normalised viability was 99.1%. Compound `Nc1cc(C(F)(F)F)c(-c2cc(N3CCOCC3)nc(N3CCOCC3)n2)cn1` [BKM-120] (1 nM) has a normalised viability of 103%. Compound `O=C(/C=C/c1cccc(S(=O)(=O)Nc2ccccc2)c1)NO` [Belinostat] (1 nM) has a normalised viability of 101%. Work on `O=P1(N(CCCl)CCCl)NCCCO1` (stereo unspecified) [Cyclophosphamide] (4 nM) yielded a normalised viability of 104%. `S=P(N1CC1)(N1CC1)N1CC1` [Thio-TEPA] (10 nM) gave a normalised viability of 104%.

The compounds below were run on HDQ-P1 in the same assay as above. Details: incubation time: 72 h.
Method: as §1
For `N#Cc1ccc(COC[C@H]2O[C@@H](n3c(NCc4ccc(Cl)c(Cl)c4)nc4c(N)ncnc43)[C@H](O)[C@@H]2O)cc1` (1 nM), the normalised viability was 118%. With `COc1cc(OC2CCN(C)CC2)ccc1Nc1ncc2c(n1)n(C1CCCC1)c(=O)n2C` [AZ 3146] (1 nM) the normalised viability was 88.3%. With `CN(C)c1nc(N(C)C)nc(N(C)C)n1` [Altretamine] (1 nM) the normalised viability was 116%. `Nc1cc(C(F)(F)F)c(-c2cc(N3CCOCC3)nc(N3CCOCC3)n2)cn1` [BKM-120] (1 nM) gave a normalised viability of 99%. Work on `O=C(/C=C/c1cccc(S(=O)(=O)Nc2ccccc2)c1)NO` [Belinostat] (1 nM) yielded a normalised viability of 84.2%. `O=P1(N(CCCl)CCCl)NCCCO1` (stereo unspecified) [Cyclophosphamide] (4 nM) showed a normalised viability of 107%. `S=P(N1CC1)(N1CC1)N1CC1` [Thio-TEPA] (10 nM) showed a normalised viability of 109%.

The compounds below were run on MDA-MB-436 in the same assay as above. Details: incubation time: 72 h.
Method: as §1
In the case of `N#Cc1ccc(COC[C@H]2O[C@@H](n3c(NCc4ccc(Cl)c(Cl)c4)nc4c(N)ncnc43)[C@H](O)[C@@H]2O)cc1` (1 nM), the normalised viability was 110%. `COc1cc(OC2CCN(C)CC2)ccc1Nc1ncc2c(n1)n(C1CCCC1)c(=O)n2C` [AZ 3146] (1 nM) showed a normalised viability of 103%. For `CN(C)c1nc(N(C)C)nc(N(C)C)n1` [Altretamine] (1 nM), the normalised viability was 110%. Work on `Nc1cc(C(F)(F)F)c(-c2cc(N3CCOCC3)nc(N3CCOCC3)n2)cn1` [BKM-120] (1 nM) yielded a normalised viability of 104%. `O=C(/C=C/c1cccc(S(=O)(=O)Nc2ccccc2)c1)NO` [Belinostat] (1 nM) was tested, and the normalised viability was 120%. With `O=P1(N(CCCl)CCCl)NCCCO1` (stereo unspecified) [Cyclophosphamide] (4 nM) the normalised viability was 110%. With `S=P(N1CC1)(N1CC1)N1CC1` [Thio-TEPA] (10 nM) the normalised viability was 99.2%.

Each compound was assayed on BT-549 in the same assay as above. Details: incubation time: 72 h.
Method: as §1
`N#Cc1ccc(COC[C@H]2O[C@@H](n3c(NCc4ccc(Cl)c(Cl)c4)nc4c(N)ncnc43)[C@H](O)[C@@H]2O)cc1` (1 nM) gave a normalised viability of 105%. Work on `COc1cc(OC2CCN(C)CC2)ccc1Nc1ncc2c(n1)n(C1CCCC1)c(=O)n2C` [AZ 3146] (1 nM) yielded a normalised viability of 84.3%. For `CN(C)c1nc(N(C)C)nc(N(C)C)n1` [Altretamine] (1 nM), the normalised viability was 93.1%. `Nc1cc(C(F)(F)F)c(-c2cc(N3CCOCC3)nc(N3CCOCC3)n2)cn1` [BKM-120] (1 nM) gave a normalised viability of 97.8%. For `O=C(/C=C/c1cccc(S(=O)(=O)Nc2ccccc2)c1)NO` [Belinostat] (1 nM), the normalised viability was 89.5%. For `O=P1(N(CCCl)CCCl)NCCCO1` (stereo unspecified) [Cyclophosphamide] (4 nM), the normalised viability was 93.2%. Compound `S=P(N1CC1)(N1CC1)N1CC1` [Thio-TEPA] (10 nM) has a normalised viability of 106%.

What follows are compounds tested on Hs578T in the same assay as above. Details: incubation time: 72 h.
Method: as §1
`N#Cc1ccc(COC[C@H]2O[C@@H](n3c(NCc4ccc(Cl)c(Cl)c4)nc4c(N)ncnc43)[C@H](O)[C@@H]2O)cc1` (1 nM) was tested, and the normalised viability was 92.8%. `COc1cc(OC2CCN(C)CC2)ccc1Nc1ncc2c(n1)n(C1CCCC1)c(=O)n2C` [AZ 3146] (1 nM) gave a normalised viability of 89.2%. `CN(C)c1nc(N(C)C)nc(N(C)C)n1` [Altretamine] (1 nM) showed a normalised viability of 97.3%. `Nc1cc(C(F)(F)F)c(-c2cc(N3CCOCC3)nc(N3CCOCC3)n2)cn1` [BKM-120] (1 nM) gave a normalised viability of 121%. In the case of `O=C(/C=C/c1cccc(S(=O)(=O)Nc2ccccc2)c1)NO` [Belinostat] (1 nM), the normalised viability was 109%. Work on `O=P1(N(CCCl)CCCl)NCCCO1` (stereo unspecified) [Cyclophosphamide] (4 nM) yielded a normalised viability of 102%. With `S=P(N1CC1)(N1CC1)N1CC1` [Thio-TEPA] (10 nM) the normalised viability was 106%.

The compounds below were run on CAL-148 in the same assay as above. Details: incubation time: 72 h.
Method: as §1
Compound `N#Cc1ccc(COC[C@H]2O[C@@H](n3c(NCc4ccc(Cl)c(Cl)c4)nc4c(N)ncnc43)[C@H](O)[C@@H]2O)cc1` (1 nM) has a normalised viability of 111%. `COc1cc(OC2CCN(C)CC2)ccc1Nc1ncc2c(n1)n(C1CCCC1)c(=O)n2C` [AZ 3146] (1 nM) was tested, and the normalised viability was 109%. Work on `CN(C)c1nc(N(C)C)nc(N(C)C)n1` [Altretamine] (1 nM) yielded a normalised viability of 111%. `Nc1cc(C(F)(F)F)c(-c2cc(N3CCOCC3)nc(N3CCOCC3)n2)cn1` [BKM-120] (1 nM) gave a normalised viability of 105%. `O=C(/C=C/c1cccc(S(=O)(=O)Nc2ccccc2)c1)NO` [Belinostat] (1 nM) showed a normalised viability of 97.1%. `O=P1(N(CCCl)CCCl)NCCCO1` (stereo unspecified) [Cyclophosphamide] (4 nM) gave a normalised viability of 119%. Compound `S=P(N1CC1)(N1CC1)N1CC1` [Thio-TEPA] (10 nM) has a normalised viability of 102%.

The compounds below were run on DU-4475 in the same assay as above. Details: incubation time: 72 h.
Method: as §1
`N#Cc1ccc(COC[C@H]2O[C@@H](n3c(NCc4ccc(Cl)c(Cl)c4)nc4c(N)ncnc43)[C@H](O)[C@@H]2O)cc1` (1 nM) was tested, and the normalised viability was 111%. `COc1cc(OC2CCN(C)CC2)ccc1Nc1ncc2c(n1)n(C1CCCC1)c(=O)n2C` [AZ 3146] (1 nM) was tested, and the normalised viability was 98.8%. `CN(C)c1nc(N(C)C)nc(N(C)C)n1` [Altretamine] (1 nM) gave a normalised viability of 111%. Work on `Nc1cc(C(F)(F)F)c(-c2cc(N3CCOCC3)nc(N3CCOCC3)n2)cn1` [BKM-120] (1 nM) yielded a normalised viability of 114%. `O=C(/C=C/c1cccc(S(=O)(=O)Nc2ccccc2)c1)NO` [Belinostat] (1 nM) gave a normalised viability of 93.1%. For `O=P1(N(CCCl)CCCl)NCCCO1` (stereo unspecified) [Cyclophosphamide] (4 nM), the normalised viability was 120%. Compound `S=P(N1CC1)(N1CC1)N1CC1` [Thio-TEPA] (10 nM) has a normalised viability of 88.7%.
